{"source": "patent US20060009487A1", "about": "“Heterocyclic derivatives for treatment of hyperlipidemia and related diseases” (priority 2004, published 2006)", "data": [{"units": {"melting point": "°C"}, "values": [{"smiles": "Cc1nc2ccccc2c(-c2ccccc2)c1CC(NC(=O)CCCC(=O)O)C(=O)NCCCCN", "note": "(centres unmarked) [D9, 4-[1-(4-Amino-butylcarbamoyl)-2-(2-methyl-4-phenyl-quinolin-3-yl)-ethylcarbamoyl]-butyric acid]", "melting point": 129}, {"smiles": "N=C(N)NCCNc1c(C(=O)O)cnc2ccccc12", "note": "[E5, n=1, 4-(2-Guanidino-ethylamino)-quinoline-3-carboxylic acid]", "melting point": 267}, {"smiles": "O=C(O)c1cnc2ccccc2c1NCCCNc1ncccn1", "note": "[E6, n=2, R=H, 4-[3-(Pyrimidin-2-yl-amino)-propylamino]-quinoline-3-carboxylic acid]", "melting point": 269}, {"smiles": "CCOC(=O)c1cnc2ccccc2c1NCCCCCNc1ncccn1", "note": "[E6, n=4, R═CH2CH3, 4-[5-(Pyrimidin-2-ylamino)-pentylamino]-quinoline-3-carboxylic acid ethyl ester]", "melting point": 108}, {"smiles": "Nc1c(C(=O)O)cnc2ccccc12", "note": "[F3, 4-Amino-quinoline-3-carboxylic acid]", "melting point": 305}]}]}
